In US4939159A, “Azaindole derivatives useful as cholesterol biosynthesis inhibitors” (Sandoz Pharm. Corp., priority 1989, dated 1990):

Tested on: 3β-hydroxysterol synthesis
Assay: Test B. In Vivo Cholesterol Biosynthesis Inhibition Test
Conditions: Rattus norvegicus, po; rats, orally administered; read-out: ED50 (dose producing 50% inhibition of 3β-hydroxysterol synthesis)
Experimental: Test B. In Yivo Cholesterol Biosynthesis Inhibition Test:
In this test the rats are orally administered the test substance (compound of Formula I) at a dose of 0.025-200 mg/kg body weight. The obtained ED50 the dose of the test substance observed or calculated to produce a 50% inhibition of 3β -hydroxysterol synthesis.

SMILES: CC[C@H](C)C(=O)O[C@H]1C[C@@H](C)C=C2C=C[C@H](C)[C@H](CC[C@@H]3C[C@@H](O)CC(=O)O3)[C@H]21 [Mevinolin]
- ED50: 0.38 mg/kg
